Values joined by “and” are separate entries in the source; they are usually repeats but may differ in a detail not shown here. Equal values may be shown once.
Assays:
Th9 cells = assay: IL-9+ Th9 cells transduced with MIGR1 or SREBP1 vector (S8K-L); assay type: cell-based, mouse; details: for IL-9 gate number: representative flow plot, Figure S8K; for IL-9 expression of Th9 cells: Supplemental Figure 8L
Experimental: For murine T cell transduction, MIGR1-based retroviral vector encoding Srebf1 was used. HEK293T cells were transfected with these constructs using Lipofectamine 3000 (Thermo Fisher Scientific) to produce viral particles. Supernatants were collected between 48 and 72 hours after transfection, filtered through a 0.45 μm membrane, and stored at –80°C. Naive murine CD4^+ T cells were activated with plate-bound anti-CD3 (2 μg/mL, clone 17A2, BioXCell) and soluble anti-CD28 (1 μg/mL, clone 37.51, BioXCell) stimulation in the presence of subset-specific polarizing cytokines and then transduced with viral supernatant supplemented with polybrene (10 μg/mL). […]
Ctrl MIGR1EpACtrl SREBP1EpA
Figure S8. […]
(K and L) Flow-cytometric analysis of IL-9 expression in Th9 cells transduced with either control (MIGR1) or SREBP1- […]
overexpressing vectors, with or without EpA treatment, showing representative plots (K) and quantification of IL-9⁺ cells (L) (n = 3). […]
(n = 3). Statistical analysis was performed using one-way ANOVA followed by Tukey’s post hoc test (G and H, J, L, N). ns, not significant. Repeated data are presented as mean ± SEM. *p < 0.05, **p < 0.01, ***p < 0.001, ****p < 0.0001.

endogenous CD8+ T cells = assay: Cytokines and granzyme B/perforin in endogenous CD8+ T cells (Figure 3H, S4D-F); assay type: in vivo, mouse; design: TNF-α expression / IFN-γ expression / Expression of IFN-g of endogenous CD8⁺ T cells in tumor / Expression of TNF-α of endogenous CD8⁺ T cells in tumor: unit not given here; details: for Expression of IFN-g of endogenous CD8⁺ T cells in tumor: Supplemental Figure 4D; for Expression of TNF-α of endogenous CD8⁺ T cells in tumor: Supplemental Figure 4E; for Expression of GzmB+Perforin+ of endogenous CD8⁺ T cells in tumor: Supplemental Figure 4F
Experimental: C57BL/6 mice were subcutaneously injected with 5 × 10^5 B16-OVA melanoma cells. Five days after tumor implantation, mice received an intravenous infusion of 2 × 10^6 in vitro–differentiated Th9 cells (cultured for 5 days), which were derived from OT-II CD45.1 donor mice, accompanied by 4 × 10^5 OVA peptide–pulsed DCs via the tail vein. To enhance T cell engraftment and facilitate lymphodepletion, a single intraperitoneal injection of cyclophosphamide (200 mg/kg, Sigma, catalog C0768) was administered 1 day prior to T cell transfer. Mice were euthanized at designated time points for the collection and analysis of spleens, tumor-draining lymph nodes, and tumor tissues.
Details regarding staining panels (human and mouse), reagents (including clones and catalog numbers), acquisition settings, compensation/controls, and analysis procedures are provided in Supplemental Methods.
BioLegend, Cat. No. 422301 or Mouse TruStain FcX™, BioLegend, Cat. No. 101319) for 10 minutes at 4°C. For surface marker detection, cells were stained with fluorochrome-conjugated monoclonal antibodies in 96-well V-bottom plates and incubated on ice for 30 minutes. After staining, cells were washed twice and resuspended in FACS buffer for analysis.
Prior to intracellular cytokine staining, cells were restimulated for 4 hours with PMA (Absin, Cat. No. abs9107), ionomycin (Sigma-Aldrich, Cat. No. I0634), and brefeldin A (MedChemExpress, Cat. No. HY-16592). For intracellular cytokine staining, cells were first surface-stained as described above, then fixed and permeabilized using the BD Cytofix/Cytoperm™ kit (BD Biosciences, Cat. No. 554714) according to the manufacturer ’s protocol. Intracellular proteins were stained with directly conjugated antibodies targeting IL-9, IL-17a, IL-4, IFN-γ, TNF-α, FOXP3, p-ZAP70, Perforin, and […]
Antibodies used for mouse samples included those against IL-9 (PE, clone RM9A4, Biolegend, Cat. No. 514104), IFN-γ (PE, clone XMG1.2, Biolegend, Cat. No.
Cat. No. 103138), CD4 (APC/Cy7, clone E-AB-F1353UJ, Elabscience, Cat. No.
AF18028), CD8α (PerCP/Cy5.5, clone E-AB-F1104UJ, Elabscience, Cat. No. […]
clone E-AB-F1187UH, Elabscience, Cat. No. AF19854), TNF-α (BV421, clone MP6-XT22, Biolegend, Cat. No. 506328), FOXP3 (PE, clone FJK-16s, eBioscience, Cat. No.
Perforin (APC, clone S16009A, Biolegend, Cat. No. 154303) and Granzyme B (APC, clone QA16A02, Biolegend, Cat. No. 372203). For human samples, antibodies against CD4 (PerCP/Cy5.5, clone RPA-T4, Biolegend, Cat. No. 300530; APC/Cy7, clone OKT4, Biolegend, Cat. No. 317418), CD19 (APC/Cy7, clone SJ25C1, Biolegend, Cat.
No. 363009), IFN-γ (PE, clone 4S.B3, Biolegend, Cat. No. 502509), IL-9 (PE, clone

[1] = endogenous CD8+, spleen, individual mice, n = 4

anteiso-C15 Leu7 surfactin [EpA]
IL-9 gate number (Th9 cells; MIGR1 control vector): 69.8 | IL-9 expression of Th9 cells (Th9 cells; MigR1, replicate 1): 69.8 | IL-9 expression of Th9 cells (Th9 cells; MigR1, replicate 2): 68.8 | IL-9 expression of Th9 cells (Th9 cells; MigR1, replicate 3): 68.6 | IL-9 gate number (Th9 cells; SREBP1-overexpressing vector): 50.3 | IL-9 expression of Th9 cells (Th9 cells; SREBP1, replicate 1): 50.3 | IL-9 expression of Th9 cells (Th9 cells; SREBP1, replicate 2): 48.8 | IL-9 expression of Th9 cells (Th9 cells; SREBP1, replicate 3): 60.7 | EpA-induced IL-9 increase (protein) upon SREBP1 overexpression (Th9 cells; result in words): markedly suppressed | GzmB+ PRF1+ gate number (endogenous CD8+ T cells; CD8+ T cells in tumors, representative flow plot, Figure S4F): 30.0 | GzmB and Perforin expression (endogenous CD8+ T cells; [1]): 76.8 and 76 and 70.2 and 67.3 | IFN-γ expression (endogenous CD8+ T cells; [1]): 11.6 and 15.2 and 19.5 and 6.9 | TNF-α expression (endogenous CD8+ T cells; [1]): 6.15 and 4.55 and 6.06 and 5 | TNF-α expression of CD8+ T cells (endogenous CD8+ T cells; spleen, result in words): remained unchanged | granzyme B+ perforin+ CD8+ T cells (endogenous CD8+ T cells; spleen, result in words): pronounced increase | Expression of IFN-g of endogenous CD8⁺ T cells in tumor (endogenous CD8+ T cells; replicate 1): 2162 | Expression of IFN-g of endogenous CD8⁺ T cells in tumor (endogenous CD8+ T cells; replicate 2): 2256 | Expression of IFN-g of endogenous CD8⁺ T cells in tumor (endogenous CD8+ T cells; replicate 3): 2381 | Expression of IFN-g of endogenous CD8⁺ T cells in tumor (endogenous CD8+ T cells; replicate 4): 2246 | Expression of TNF-α of endogenous CD8⁺ T cells in tumor (endogenous CD8+ T cells; replicate 1): 989 | Expression of TNF-α of endogenous CD8⁺ T cells in tumor (endogenous CD8+ T cells; replicate 2): 542 | Expression of TNF-α of endogenous CD8⁺ T cells in tumor (endogenous CD8+ T cells; replicate 3): 1324 | Expression of TNF-α of endogenous CD8⁺ T cells in tumor (endogenous CD8+ T cells; replicate 4): 780 | Expression of GzmB+Perforin+ of endogenous CD8⁺ T cells in tumor (endogenous CD8+ T cells; replicate 1): 28.2 | Expression of GzmB+Perforin+ of endogenous CD8⁺ T cells in tumor (endogenous CD8+ T cells; replicate 2): 30 | Expression of GzmB+Perforin+ of endogenous CD8⁺ T cells in tumor (endogenous CD8+ T cells; replicate 3): 29.9 | Expression of GzmB+Perforin+ of endogenous CD8⁺ T cells in tumor (endogenous CD8+ T cells; replicate 4): 58.8 | TNF-α expression of CD8+ T cells (endogenous CD8+ T cells; tumors, result in words): upregulated TNF-α expression
